Data set [1] concerns C57BL6 mice fed High Fat Diet. Put plainly: Oxygen consumption (Oxymax indirect calorimeter) in High Fat Diet fed mice. It is filed as in vivo. The following applies: Dose 11 μM/kg intraperitoneally, day 8, % change vs vehicle; for change in vivo at 11 µM, 11 µmol/kg: Mus musculus, ip, 192 h, read-out: increase in O2 cons. How it is done: (§1) C57BL6 mice (14-18 weeks age), fed for 8-12 weeks with High Fat Diet (45% kcal fat) were used for the study. The mice were placed in individual housing for one week. The mice were then kept in oxymax cages for 48 h for acclimatization. Basal recordings of oxygen consumption and carbon dioxide production for each mouse were recorded with indirect open circuit calorimeter (Oxymax, Columbus Instruments, USA (Ling fu et al., Endocrinology (2004); 145 (6); 2591-3). On the basis of body weight and basal oxygen consumption, mice were randomized and divided into two groups. • I) Vehicle treated group • II) Test compound treated group
(§2) The mice were treated with vehicle and test compounds intraperitoneally for 7-15 days. On the day 8, Oxygen consumption was measured for individual mouse 30 min after the drug treatment and % change with respect to vehicle is calculated.

Data set [2] relates to C57BL6 mice fed High Fat Diet. Put plainly: Food consumption in High Fat Diet fed mice. It is filed as in vivo. The note with it: Dose 11 μM/kg intraperitoneally, 7-15 days. On the procedure:
as §1, §2
(§3) During the experiment food consumption was monitored daily. At the end of the experiment the animals were scarified and the heart weights were recorded.

For data set [3], the system named is C57BL6 mice fed High Fat Diet. Put plainly: Heart weight in High Fat Diet fed mice. The data set is classed as in vivo. The following applies: Dose 11 μM/kg intraperitoneally, end of experiment. How it is done: as §1, §2, §3
The next data set has as its target T1, THR α1 (Homo sapiens, UniProt P10827).
T1 construct: GAL4 (plasmid pGAL4); expressed in transfected cells; host or cells: COS7
T1 sequence (P10827 1-410 isoform P10827-2): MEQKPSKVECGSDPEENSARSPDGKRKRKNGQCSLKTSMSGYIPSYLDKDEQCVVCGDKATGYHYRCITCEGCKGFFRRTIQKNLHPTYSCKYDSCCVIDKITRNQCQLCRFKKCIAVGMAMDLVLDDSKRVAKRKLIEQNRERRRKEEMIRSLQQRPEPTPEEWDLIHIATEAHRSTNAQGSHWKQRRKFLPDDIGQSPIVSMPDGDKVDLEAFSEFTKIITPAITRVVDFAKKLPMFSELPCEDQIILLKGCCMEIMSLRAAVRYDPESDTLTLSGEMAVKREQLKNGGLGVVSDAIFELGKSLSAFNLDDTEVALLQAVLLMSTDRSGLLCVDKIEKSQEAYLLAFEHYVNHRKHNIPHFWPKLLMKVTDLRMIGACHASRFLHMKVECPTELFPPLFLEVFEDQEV
Briefly: Thyroid α1 transactivation (TRE reporter, luciferase) in COS7 cells. The data set is classed as cell-based. The note with it: Conc. 20 uM, 24 hours, vs vehicle control. On the procedure: (§4) Compounds of the present invention were tested for their effect on O2 consumption (metabolic effect), LDL cholesterol, glucose levels, insulin levels and food consumption (appetite stimulant) and also to assess transcriptional activity of thyroid hormone receptor by in vitro TRE (Thyroid receptor element) reporter assay for TRα1 and TRβ1.
(§5) COS7 cells were transiently transfected with pGAL4 […]/Thyroid α1 or pGAL4/Thyroid β1 and pLuc Pur. The cells were cotransfected with pLacZNorm for normalization of transfection efficiency. Transfected cells were then treated with different concentrations of compounds of present invention, vehicle for 24 hours.
(§6) Cells were the lysed and luciferase activity was monitored in all samples. Results were expressed as fold activation as compared to vehicle control.
(§7) Results: Thyroid(α1/β1) transactivation in COS7 cells.

A further data set addresses T2, THR β1 (Homo sapiens, UniProt P10828).
T2 construct: GAL4 (plasmid pGAL4); expressed in transfected cells; host or cells: COS7
T2 sequence (P10828 1-461): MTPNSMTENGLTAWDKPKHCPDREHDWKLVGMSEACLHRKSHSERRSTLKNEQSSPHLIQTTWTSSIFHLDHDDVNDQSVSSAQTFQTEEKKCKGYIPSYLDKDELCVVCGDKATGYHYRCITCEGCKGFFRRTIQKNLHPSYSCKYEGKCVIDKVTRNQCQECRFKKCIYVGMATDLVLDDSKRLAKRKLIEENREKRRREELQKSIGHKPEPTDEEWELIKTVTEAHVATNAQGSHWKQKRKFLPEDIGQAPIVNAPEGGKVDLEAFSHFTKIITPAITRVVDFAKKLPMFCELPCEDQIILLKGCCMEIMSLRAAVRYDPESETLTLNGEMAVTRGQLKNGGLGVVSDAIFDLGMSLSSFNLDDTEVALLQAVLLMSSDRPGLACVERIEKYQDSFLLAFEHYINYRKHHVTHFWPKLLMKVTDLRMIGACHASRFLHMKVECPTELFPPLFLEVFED
Briefly: Thyroid β1 transactivation (TRE reporter, luciferase) in COS7 cells. The note with it: Conc. 20 uM, 24 hours, vs vehicle control. The data set is classed as cell-based. How it is done: as §4, §5, §6, §7

Some results are limits rather than exact numbers.

Take “3-[4-(7-Hydroxy-indan-4-yloxy)-3-thiophen-2-yl-pyrazol-1-yl]-propionic acid And 3-[4-(7-Hydroxy-indan-4-yloxy)-5-thiophen-2-yl-pyrazol-1-yl]-propionic acid [Compound 7]”: the “increase in O2 cons” value in data set [1] is “** (** = Increase > 5%)”. In addition, the “increase in food consumption with reference to vehicle” value (from here on “increase in food consumption”) in data set [2] is given as “No change”. For the same compound, the “increase in Heart weight with reference to vehicle” value (“increase in Heart weight” below) in data set [3] is listed as “No change”.

Turning to “7-[1-(1H-Tetrazol-5-ylmethyl)-3-thiophen-2-yl-1H-pyrazol-4-yloxy]-indan-4-ol And 7-[1-(1H-Tetrazol-5-ylmethyl)-5-thiophen-2-yl-1H-pyrazol-4-yloxy]-indan-4-ol [Compound 8]”, the “α1 Fold Activation” value on THR α1 was 3 Fold. Besides, at THR β1, the “β1 Fold Activation” value stood at 1 Fold. Moreover, the “increase in O2 cons” value in data set [1] is recorded as “** (** = Increase > 5%)”. Moreover, the “increase in food consumption” value in data set [2] is given as “No change”. For the same compound, the “increase in Heart weight” value in data set [3] was “No change”.

With `Cc1nn(CCC(=O)O)c(C)c1Oc1ccc(O)c2c1CCC2` [Compound 1, 3-[4-(7-Hydroxy-indan-4-yloxy)-3,5-dimethyl-pyrazol-1-yl]-propionic acid], the “α1 Fold Activation” value at THR α1 is reported as 1 Fold. Besides, the “β1 Fold Activation” value at THR β1 is given as 1 Fold. Further, in data set [1], the change in vivo at 11 µM, 11 µmol/kg was < 5%. In addition, the “increase in food consumption” value in data set [2] is reported as “No change”. For the same compound, in data set [3], the “increase in Heart weight” value is listed as “No change”.

For the compound `Cc1nn(CCC(=O)O)c(C)c1Cc1ccc2[nH]ccc2c1` [Compound 2, 3-[4-(1H-Indol-5-ylmethyl)-3,5-dimethyl-pyrazol-1-yl]-propionic acid], the “α1 Fold Activation” value on THR α1 is on record as 1 Fold. Moreover, the “β1 Fold Activation” value at THR β1 is reported as 1 Fold. Also, the change in vivo at 11 µM, 11 µmol/kg in data set [1] was < 5%. Also, the “increase in food consumption” value in data set [2] is “No change”. In addition, the “increase in Heart weight” value in data set [3] is listed as “No change”.

Regarding `Cc1nn(Cc2nnn[nH]2)c(C)c1Oc1ccc(O)c2c1CCC2` [Compound 3, 7-[3,5-Dimethyl-1-(1H-tetrazol-5-ylmethyl)-1H-pyrazol-4-yloxy]-indan-4-ol], the “α1 Fold Activation” value at THR α1 stood at 1 Fold. Also, the “β1 Fold Activation” value at THR β1 turned out to be 1 Fold. The change in vivo at 11 µM, 11 µmol/kg in data set [1] was > 5%. In data set [2], the “increase in food consumption” value is recorded as “No change”. Further, in data set [3], the “increase in Heart weight” value is listed as “No change”.

`Cc1nn(CC(=O)Nc2nnn[nH]2)c(C)c1Oc1ccc(O)c2c1CCC2` [Compound 6, 2-[4-(7-Hydroxy-indan-4-yloxy)-3,5-dimethyl-pyrazol-1-yl]-N-(1H-tetrazol-5-yl)-acetamide]: in data set [1], the change in vivo at 11 µM, 11 µmol/kg is < 5%. Further, in data set [2], the “increase in food consumption” value was “No change”. Moreover, in data set [3], the “increase in Heart weight” value is recorded as “No change”.

Turning to `Cc1cc(Cc2c(C)nn(CCC(=O)O)c2C)c2c(c1O)CCC2` [Compound 9, 3-[4-(7-Hydroxy-6-methyl-indan-4-ylmethyl)-3,5-dimethyl-pyrazol-1-yl]-propionic acid], the “α1 Fold Activation” value at THR α1 stood at 2.5 Fold. Moreover, the “β1 Fold Activation” value at THR β1 is recorded as 2 Fold. Further, the change in vivo at 11 µM, 11 µmol/kg in data set [1] is > 5%. Besides, in data set [2], the “increase in food consumption” value is “No change”. Besides, the “increase in Heart weight” value in data set [3] is given as “No change”.

As to `COc1c(C)cc(Cc2c(C)nn(CCC(=O)O)c2C)c2c1CCC2` [Compound 14, 3-[4-(7-Methoxy-6-methyl-indan-4-ylmethyl)-3,5-dimethyl-pyrazol-1-yl]-propionic acid], the change in vivo at 11 µM, 11 µmol/kg in data set [1] was < 5%. Moreover, in data set [2], the “increase in food consumption” value is on record as “No change”. In data set [3], the “increase in Heart weight” value is listed as “No change”.

Consider `CCc1nn(CC(=O)O)c(CC)c1Cc1cc(C)c(O)c2c1CCC2` [Compound 19, [3,5-Diethyl-4-(7-hydroxy-6-methyl-indan-4-ylmethyl)-pyrazol-1-yl]-acetic acid], for which the change in vivo at 11 µM, 11 µmol/kg in data set [1] was > 5%. Moreover, in data set [2], the “increase in food consumption” value is recorded as “No change”. Besides, the “increase in Heart weight” value in data set [3] is listed as “No change”.

Take `CCc1nn(CCC(=O)O)c(CC)c1Cc1cc(C)c(O)c2c1CCC2` [Compound 20, 3-[3,5-Diethyl-4-(7-hydroxy-6-methyl-indan-4-ylmethyl)-pyrazol-1-yl]-propionic acid]: the change in vivo at 11 µM, 11 µmol/kg in data set [1] was > 5%. Also, in data set [2], the “increase in food consumption” value was “No change”. In addition, in data set [3], the “increase in Heart weight” value is “No change”.
